# In patent US8802597B2, “Herbicidal pyrimidines” (E I du Pont de Nemours and Company, priority 2003, dated 2014):
# What was measured:
# Experiment in all cases: Test C pre/postemergence
# Assay type in all cases: in vivo
# [1] = tested on: common (oilseed) sunflower (Helianthus annuus); settings: Preemergence, scale 0 to 100, 0 no effect, 100 complete control
# Outline: (§1)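 Applications: preemergence onto seeded soil and postemergence onto 1- to 4-leaf seedlings, compound carried in non-phytotoxic solvent plus surfactant. Kept in greenhouse 12 to 14 days. Scored visually relative to untreated controls, 0 (no effect) to 100 (complete control).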
# [2] = tested on: common ragweed (Ambrosia elatior); settings: for Plant response rating, Ragweed: Preemergence, scale 0 to 100, 0 no effect, 100 complete control
# Outline: as §1
# [3] = tested on: cocklebur (Xanthium strumarium); settings: for Plant response rating, Cocklebur: Preemergence
# Outline: as §1
# [4] = tested on: johnsongrass (Sorghum halepense); settings: for Plant response rating, Johnsongrass: Preemergence
# Outline: as §1
# [5] = tested on: bermudagrass (Cynodon dactylon); settings: for Plant response rating, Bermudagrass: Preemergence; for Plant response rating (scale of 0 to 100), Bermudagrass / Bermudagrass plant response rating: Postemergence; for Bermudagrass plant response rating: scale 0 to 100 (0 no effect, 100 complete control)
# Outline: as §1
# [6] = tested on: lambsquarters (Chenopodium album); settings: for Plant response rating, Lambsquarters: Preemergence
# Outline: as §1
# [7] = tested on: kochia (Kochia scoparia); settings: for Plant response rating, Kochia: Preemergence
# Outline: as §1
# [8] = tested on: soybean (Glycine max); settings: for Plant response rating, Soybean: Preemergence, scale 0 to 100, 0 no effect, 100 complete control
# Outline: as §1
# [9] = tested on: goosegrass (Eleusine indica); settings: for Plant response rating, Goosegrass: Preemergence
# Outline: as §1
# [10] = tested on: velvetleaf (Abutilon theophrasti); settings: for Plant response rating, Velvetleaf: Preemergence, scale 0 to 100, 0 no effect, 100 complete control
# Outline: as §1
# [11] = tested on: pigweed (Amaranthus retroflexus); settings: for Plant response rating, Pigweed: Preemergence, scale 0 to 100, 0 no effect, 100 complete control
# Outline: as §1
# [12] = tested on: eastern black nightshade (Solanum ptycanthum); settings: Preemergence, scale 0 to 100, 0 no effect, 100 complete control
# Outline: as §1
# [13] = 16 g ai/ha, scale 0 to 100, 0 no effect, 100 complete control
# [14] = 31 g ai/ha, scale 0 to 100, 0 no effect, 100 complete control
# [15] = 62 g ai/ha, scale 0 to 100, 0 no effect, 100 complete control
# [16] = Postemergence, 125 g ai/ha, scale 0 to 100 (0 no effect, 100 complete control)
structure (smiles),measurement,setting,value
CCCOC(=O)c1nc(C2CC2)nc(N)c1Cl [Compound 75],"Plant response rating, Sunflower",[1]; 16 g ai/ha,50
same,"Plant response rating, Sunflower",[1]; 31 g ai/ha,70
same,"Plant response rating, Sunflower",[1]; 62 g ai/ha,100
same,"Plant response rating, Ragweed",[2]; 16 g ai/ha,20
same,"Plant response rating, Ragweed",[2]; 31 g ai/ha,70
same,"Plant response rating, Ragweed",[2]; 62 g ai/ha,80
same,"Plant response rating, Ragweed",[2],90
same,"Plant response rating, Cocklebur",[3]; [13],55
same,"Plant response rating, Cocklebur",[3]; [14],90
same,"Plant response rating, Cocklebur",[3]; [15],95
same,"Plant response rating, Cocklebur","[3]; 125 g ai/ha, scale 0 to 100",100
same,"Plant response rating, Johnsongrass",[4]; [13],0
same,"Plant response rating, Johnsongrass",[4]; [14],0
same,"Plant response rating, Johnsongrass",[4]; [15],50
same,"Plant response rating, Johnsongrass","[4]; 125 g ai/ha, scale 0 to 100",55
same,"Plant response rating, Bermudagrass",[5]; [13],0
same,"Plant response rating, Bermudagrass",[5]; [14],0
same,"Plant response rating, Bermudagrass",[5]; [15],0
same,"Plant response rating, Bermudagrass","[5]; 125 g ai/ha, scale 0 to 100",20
same,"Plant response rating, Lambsquarters",[6]; [13],70
same,"Plant response rating, Lambsquarters",[6]; [14],75
same,"Plant response rating, Lambsquarters",[6]; [15],80
same,"Plant response rating, Lambsquarters","[6]; 125 g ai/ha, scale 0 to 100",100
same,"Plant response rating, Kochia",[7]; [13],70
same,"Plant response rating, Kochia",[7]; [14],80
same,"Plant response rating, Kochia",[7]; [15],100
same,"Plant response rating, Kochia","[7]; 125 g ai/ha, scale 0 to 100",100
same,"Plant response rating, Soybean",[8]; 16 g ai/ha,55
same,"Plant response rating, Soybean",[8]; 31 g ai/ha,60
same,"Plant response rating, Soybean",[8]; 62 g ai/ha,100
same,"Plant response rating, Goosegrass",[9]; [13],0
same,"Plant response rating, Goosegrass",[9]; [14],0
same,"Plant response rating, Goosegrass",[9]; [15],0
same,"Plant response rating, Goosegrass","[9]; 125 g ai/ha, scale 0 to 100",30
same,"Plant response rating, Velvetleaf",[10]; 16 g ai/ha,5
same,"Plant response rating, Velvetleaf",[10]; 31 g ai/ha,60
same,"Plant response rating, Velvetleaf",[10]; 62 g ai/ha,85
same,"Plant response rating, Pigweed",[11]; 16 g ai/ha,70
same,"Plant response rating, Pigweed",[11]; 31 g ai/ha,75
same,"Plant response rating, Pigweed",[11]; 62 g ai/ha,80
same,"Plant response rating, Nightshade",[12]; 16 g ai/ha,0
same,"Plant response rating, Nightshade",[12]; 31 g ai/ha,50
same,"Plant response rating, Nightshade",[12]; 62 g ai/ha,70
same,"Plant response rating, Nightshade",[12],100
CCCCOC(=O)c1nc(C2CC2)nc(N)c1Cl [Compound 76],"Plant response rating, Sunflower",[1]; 16 g ai/ha,50
same,"Plant response rating, Sunflower",[1]; 31 g ai/ha,85
same,"Plant response rating, Sunflower",[1]; 62 g ai/ha,100
same,"Plant response rating (scale of 0 to 100), Ragweed","[2]; Postemergence, 16 g ai/ha",80
same,"Plant response rating (scale of 0 to 100), Ragweed","[2]; Postemergence, 31 g ai/ha",90
same,"Plant response rating (scale of 0 to 100), Ragweed","[2]; Postemergence, 62 g ai/ha",95
same,Ragweed plant response rating,[2]; [16],100
same,"Plant response rating, Ragweed",[2]; 16 g ai/ha,50
same,"Plant response rating, Ragweed",[2]; 31 g ai/ha,60
same,"Plant response rating, Ragweed",[2]; 62 g ai/ha,80
same,"Plant response rating, Ragweed",[2],100
same,"Plant response rating (scale of 0 to 100), Cocklebur","[3]; Postemergence, 16 g ai/ha",100
same,"Plant response rating (scale of 0 to 100), Cocklebur","[3]; Postemergence, 31 g ai/ha",100
same,"Plant response rating (scale of 0 to 100), Cocklebur","[3]; Postemergence, 62 g ai/ha",100
same,Cocklebur plant response rating,[3]; [16],100
same,"Plant response rating, Cocklebur",[3]; [13],65
same,"Plant response rating, Cocklebur",[3]; [14],90
same,"Plant response rating, Cocklebur",[3]; [15],90
same,"Plant response rating, Cocklebur","[3]; 125 g ai/ha, scale 0 to 100",90
same,"Plant response rating (scale of 0 to 100), Johnsongrass","[4]; Postemergence, 16 g ai/ha",25
same,"Plant response rating (scale of 0 to 100), Johnsongrass","[4]; Postemergence, 31 g ai/ha",65
same,Johnsongrass plant response rating,[4]; [16],95
same,"Plant response rating, Johnsongrass",[4]; [13],0
same,"Plant response rating, Johnsongrass",[4]; [14],0
same,"Plant response rating, Johnsongrass",[4]; [15],20
same,"Plant response rating, Johnsongrass","[4]; 125 g ai/ha, scale 0 to 100",50
same,"Plant response rating (scale of 0 to 100), Bermudagrass",[5]; 16 g ai/ha,15
same,"Plant response rating (scale of 0 to 100), Bermudagrass",[5]; 31 g ai/ha,70
same,Bermudagrass plant response rating,[5]; 62 g ai/ha,75
same,Bermudagrass plant response rating,[5]; 125 g ai/ha,75
same,"Plant response rating, Bermudagrass",[5]; [13],0
same,"Plant response rating, Bermudagrass",[5]; [14],0
same,"Plant response rating, Bermudagrass",[5]; [15],0
same,"Plant response rating, Bermudagrass","[5]; 125 g ai/ha, scale 0 to 100",0
same,"Plant response rating (scale of 0 to 100), Lambsquarters","[6]; Postemergence, 16 g ai/ha",90
same,"Plant response rating (scale of 0 to 100), Lambsquarters","[6]; Postemergence, 31 g ai/ha",95
same,"Plant response rating (scale of 0 to 100), Lambsquarters","[6]; Postemergence, 62 g ai/ha",100
same,Lambsquarters plant response rating,[6]; [16],100
same,"Plant response rating, Lambsquarters",[6]; [13],70
same,"Plant response rating, Lambsquarters",[6]; [14],70
same,"Plant response rating, Lambsquarters",[6]; [15],80
same,"Plant response rating, Lambsquarters","[6]; 125 g ai/ha, scale 0 to 100",80
same,"Plant response rating (scale of 0 to 100), Kochia","[7]; Postemergence, 16 g ai/ha",90
same,"Plant response rating (scale of 0 to 100), Kochia","[7]; Postemergence, 31 g ai/ha",95
same,"Plant response rating (scale of 0 to 100), Kochia","[7]; Postemergence, 62 g ai/ha",95
same,Kochia plant response rating,[7]; [16],100
same,"Plant response rating, Kochia",[7]; [13],70
same,"Plant response rating, Kochia",[7]; [14],90
same,"Plant response rating, Kochia",[7]; [15],95
same,"Plant response rating, Kochia","[7]; 125 g ai/ha, scale 0 to 100",100
same,"Plant response rating (scale of 0 to 100), Soybean","[8]; Postemergence, 16 g ai/ha",95
same,"Plant response rating (scale of 0 to 100), Soybean","[8]; Postemergence, 31 g ai/ha",95
same,"Plant response rating (scale of 0 to 100), Soybean","[8]; Postemergence, 62 g ai/ha",95
same,Soybean plant response rating,[8]; [16],100
same,"Plant response rating, Soybean",[8]; 16 g ai/ha,50
same,"Plant response rating, Soybean",[8]; 31 g ai/ha,70
same,"Plant response rating, Soybean",[8]; 62 g ai/ha,95
same,"Plant response rating (scale of 0 to 100), Goosegrass","[9]; Postemergence, 16 g ai/ha",30
same,"Plant response rating (scale of 0 to 100), Goosegrass","[9]; Postemergence, 31 g ai/ha",45
same,"Plant response rating (scale of 0 to 100), Goosegrass","[9]; Postemergence, 62 g ai/ha",45
same,Goosegrass plant response rating,[9]; [16],50
same,"Plant response rating, Goosegrass",[9]; [13],0
same,"Plant response rating, Goosegrass",[9]; [14],0
same,"Plant response rating, Goosegrass",[9]; [15],0
same,"Plant response rating, Goosegrass","[9]; 125 g ai/ha, scale 0 to 100",0
same,"Plant response rating (scale of 0 to 100), Velvetleaf","[10]; Postemergence, 16 g ai/ha",45
same,"Plant response rating (scale of 0 to 100), Velvetleaf","[10]; Postemergence, 31 g ai/ha",80
same,"Plant response rating (scale of 0 to 100), Velvetleaf","[10]; Postemergence, 62 g ai/ha",95
same,Velvetleaf plant response rating,[10]; [16],95
same,"Plant response rating, Velvetleaf",[10]; 16 g ai/ha,30
same,"Plant response rating, Velvetleaf",[10]; 31 g ai/ha,40
same,"Plant response rating, Velvetleaf",[10]; 62 g ai/ha,70
same,"Plant response rating (scale of 0 to 100), Pigweed","[11]; Postemergence, 16 g ai/ha",85
same,"Plant response rating (scale of 0 to 100), Pigweed","[11]; Postemergence, 31 g ai/ha",95
same,"Plant response rating (scale of 0 to 100), Pigweed","[11]; Postemergence, 62 g ai/ha",100
same,Pigweed plant response rating,[11]; [16],100
same,"Plant response rating, Pigweed",[11]; 16 g ai/ha,60
same,"Plant response rating, Pigweed",[11]; 31 g ai/ha,80
same,"Plant response rating, Pigweed",[11]; 62 g ai/ha,80
same,"Plant response rating, Nightshade",[12]; 16 g ai/ha,30
same,"Plant response rating, Nightshade",[12]; 31 g ai/ha,40
same,"Plant response rating, Nightshade",[12]; 62 g ai/ha,60
same,"Plant response rating, Nightshade",[12],100
